{
  "source": "paper doi:10.1101/2024.12.09.627564",
  "about": "“Cannabinoid inhibition of mechanosensitive K^+ channels” (bioRxiv, 2024)",
  "target": "T1, hsTRAAK (Homo sapiens, UniProt Q9NYG8)",
  "T1 construct": "expressed in transfected cells; host or cells: HEK293T",
  "T1 sequence (Q9NYG8 1-393)": "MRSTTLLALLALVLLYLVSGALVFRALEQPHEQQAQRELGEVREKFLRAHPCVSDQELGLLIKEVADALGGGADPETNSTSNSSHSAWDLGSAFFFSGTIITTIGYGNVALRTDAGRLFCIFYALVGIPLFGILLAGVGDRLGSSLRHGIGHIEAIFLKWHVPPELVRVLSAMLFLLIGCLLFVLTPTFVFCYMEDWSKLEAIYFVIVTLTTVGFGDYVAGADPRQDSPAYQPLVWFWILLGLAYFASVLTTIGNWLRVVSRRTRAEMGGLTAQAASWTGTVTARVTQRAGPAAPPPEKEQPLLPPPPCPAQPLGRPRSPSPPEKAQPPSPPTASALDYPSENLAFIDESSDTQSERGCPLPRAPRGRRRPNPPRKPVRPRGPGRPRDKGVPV",
  "experiment": "Whole-cell recordings of TRAAK in cultured HEK293T cells, extracellular CBD",
  "type": "cell-based",
  "conditions": "1 and 10 μM CBD, 0 mV",
  "method": "For patch clamp recording from cultured cells, drTREK-1 or hsTRAAK genes were cloned into a modified pCEH vector to generate C-terminally EGFP-tagged constructs. HEK293T were cultured in DMEM (Gibco, Thermo Fisher Scientific) with 10% FBS and 100 U ml−1 penicillin and 100 μg ml−1 streptomycin. Trypsinized cells were deposited on 12-mm glass coverslips in a six-well dish one to two days before transfection. For transfection, drTREK-1 or hsTRAAK plasmids were mixed with FuGENE 6 in OptiMEM at a 1:3 ratio with 1 μg DNA per well per construct and applied to cells in growth medium with antibiotics. Patching was conducted from 24 to 60 h post-transfection. Coverslips were placed in a perfusion chamber at room temperature in isotonic bath solution: 135 mM NaCl, 15 mM KCl, 1 mM CaCl2, 1 mM MgCl2, 10 mM HEPES, adjusted to a final pH of 7.5 with NaOH. Cells were chosen by a combination of the presence GFP fluorescence and cell morphology consistent with healthy interphase cells. […]\nPatches were evaluated with voltage-step protocols to confirm TRAAK expression and minimal non-specific leak based on reversal potential. Currents were recorded using an Axopatch 200B amplifier (Molecular Devices) at a bandwidth of 1 kHz and digitized with an Digidata 1550B (Molecular Devices) at 100–500 kHz using pClamp10.7 software. […] Data were analyzed using Clampfit 10.7, Excel, and Graphpad Prism software. […]",
  "data": [
    {"smiles": "C=C(C)[C@@H]1CCC(C)=C[C@H]1c1c(O)cc(CCCCC)cc1O", "note": "[CBD, Cannabidiol]", "values": [
      {"measurement": "inhibition of TRAAK by extracellular CBD", "value": "strongly inhibited"}
    ]}
  ]
}
